# Reference: US20100098641A1, “Monophosphates as Mutual Prodrugs of Anti-Inflammatory Signal Transduction Modulators (AISTM's) and Beta-Agonists for the Treatment of Pulmonary Inflammation and Bronchoconstriction” (priority 2006, published 2010)
# Where two headings read alike, the source gives them in different places.
# Experiments:
# alkaline phosphatase = alkaline phosphatase (Homo sapiens, UniProt P05187); assay: Conversion of mutual prodrugs to salmeterol and AISTM drug after exposure to alkaline phosphatase in vitro (LCMS); assay type: in vitro ADME; details: for Calculated Compound Final Conc. (μM) at 270 mins.: 270 mins in ALP; for half-life at 0.1 mg/mL / half-life at 111.7 μM: human, alkaline phosphatase (Sigma P-3895) in reaction buffer, read-out: Half Life t1/2; for Example 37 in ALP (Peak Area Ratio) Normalized / Example 37 in ALP (Peak Area Ratio) mean / Example 29 in ALP (Peak Area Ratio) Normalized / Example 29 in ALP (Peak Area Ratio) mean: 37 degrees; for half-life at 111.7 μM: Table 1b
# Procedure: Conversion of the Mutual AISTM-β-Agonist Prodrugs (Described in Examples 29 and 37) to Salmeterol and Respective AISTM Drugs after Exposure to Alkaline Phosphatase In Vitro
# Reaction Buffer (pH 7.4, 5 mM tris/1 mM Mg^2+/1 mM Zn^2+) […]
# Dissolved ˜2 mg of the mutual prodrug of invention in 10 ml 1:1 acetonitrile/water.
# Dissolved ˜2 mg of each MRA and β-agonist in 20 ml 1:1 acetonitrile/water
# The stock solutions were mixed in microcentrifuge tubes, as depicted in the following Table:
# (§1) The heat block was set at the 37 degrees. Then 0.5 mL of alkaline phosphatase solution was added into 4 preheated Eppendorf tubes. The aliquot 0.5 of prodrug and drug standards were added into preheated Eppendorf tubes. Immediately after vortexing the aliquots of 25 μL of the all reaction solutions were made into the respective 96-well plate positions. The internal standard (75 μl of 500 ng/mL Glyburide) was added into all samples after each aliquots. That procedure was repeated at every 15 minute intervals for ˜4-5 hours.
# The 96-well plates were then analyzed using the LCMS technique.
# (§2) In the calculation of half life, we assumed that the disappearance of the mutual prodrug of this invention followed first order kinetics. Therefore,
# (§3) The area peak ratio of prodrug vs IS was plotted against time first; the peak area ratios of later time points were normalized with the peak area ratio of initial time point (ASAP). The natural log of the normalized ratio was then plotted against time to generate a linear curve. The slope of this linear curve k was used for the following calculation.
# Drug concentrations are calculated by normalizing the peak area ration to (t 0). Thus, calculated drug concentrations at any time point=normalized peak area ratio [t (0) mean/t mean]multiplied initial drug concentration. Data (normalized peak area ratio) for the calculations of drug concentrations are listed in Table 1a (ALP activation) and 1b (half-life in ALP and buffer only) for the compound prepared in Example 29, salmeterol, and the ARRY-797 compound (Munson et al., 2004) and Table 2a (ALP activation) and 2b (half-life in ALP and buffer only)) for the compound prepared in Example 37, salmeterol, and the PDE4 inhibitor, CDP-840 (Alexander et al., 2002).
# [1] = Half life of mutual prodrug in reaction buffer only (pH 7.4 tris/Mg2+/Zn2+); assay type: physicochemical; details: reaction buffer without alkaline phosphatase, reaction buffer pH 7.4, no ALP
# Procedure: Reaction Buffer (pH 7.4, 5 mM tris/1 mM Mg^2+/1 mM Zn^2+)
# as §1, §2, §3
# Drug concentrations are calculated by normalizing the peak area ration to (t 0). Thus, calculated drug concentrations at any time point=normalized peak area ratio [t (0) mean/t mean]multiplied initial drug concentration. […]
# Sequence of alkaline phosphatase (P05187 23-506): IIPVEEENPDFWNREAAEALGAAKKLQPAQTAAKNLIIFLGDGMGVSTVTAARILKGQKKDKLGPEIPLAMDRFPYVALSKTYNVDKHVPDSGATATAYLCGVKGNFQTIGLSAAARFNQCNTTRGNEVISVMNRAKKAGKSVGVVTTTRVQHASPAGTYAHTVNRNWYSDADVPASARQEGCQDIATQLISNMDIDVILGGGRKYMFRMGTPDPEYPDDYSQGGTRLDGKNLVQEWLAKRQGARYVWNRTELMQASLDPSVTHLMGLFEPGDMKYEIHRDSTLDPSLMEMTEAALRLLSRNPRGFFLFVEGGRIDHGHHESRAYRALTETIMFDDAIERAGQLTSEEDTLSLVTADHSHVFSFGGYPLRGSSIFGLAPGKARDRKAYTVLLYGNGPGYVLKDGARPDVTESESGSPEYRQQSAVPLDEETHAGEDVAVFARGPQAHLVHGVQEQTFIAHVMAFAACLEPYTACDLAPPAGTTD
smiles,measurement,setting,value
"COc1ccc([C@H](Cc2cc[n+](Cc3ccc(C(O)CNCCCCCCOCCCCc4ccccc4)cc3OP(=O)(O)O)cc2)c2ccccc2)cc1OC1CCCC1 (stereo in doubt) [Example 37, 4-[2-(3-Cyclopentyloxy-4-methoxy-phenyl)-2-phenyl-ethyl]-1-(4-{1-hydroxy-2-[6-(4-phenyl-butoxy)-hexylamino]-ethyl}-2-phosphonooxy-benzyl)-pyridinium]",Half Life t1/2,"alkaline phosphatase; ALP Enzyme Conc. 0.224 mg/mL, Table 2b, first order kinetics assumed",0.925 h
same,Calculated Compound Final Conc. (μM) at 270 mins.,alkaline phosphatase; added initial conc. 117.4 μM in reaction mixture,1.9 µM
same,half-life at 0.1 mg/mL,"alkaline phosphatase; pH 7.4, ALP Enzyme Conc. 0.224 mg/mL, Table 2b, first order kinetics assumed",0.775 h
same,half-life at 0.1 mg/mL,"alkaline phosphatase; pH 7.4, ALP Enzyme Conc. 0.443 mg/mL, Table 2b, first order kinetics assumed",0.41 h
same,Example 37 in ALP (Peak Area Ratio) Normalized,alkaline phosphatase; time 0 mins,1.0000
same,Example 37 in ALP (Peak Area Ratio) mean,alkaline phosphatase; time 0 mins,0.8115
same,Example 37 in ALP (Peak Area Ratio) Normalized,alkaline phosphatase; time 15.0 mins,0.5126
same,Example 37 in ALP (Peak Area Ratio) mean,alkaline phosphatase; time 15.0 mins,0.4160
same,Example 37 in ALP (Peak Area Ratio) Normalized,alkaline phosphatase; time 30.0 mins,0.2705
same,Example 37 in ALP (Peak Area Ratio) mean,alkaline phosphatase; time 30.0 mins,0.2195
same,Example 37 in ALP (Peak Area Ratio) Normalized,alkaline phosphatase; time 45.0 mins,0.1719
same,Example 37 in ALP (Peak Area Ratio) mean,alkaline phosphatase; time 45.0 mins,0.1395
same,Example 37 in ALP (Peak Area Ratio) Normalized,alkaline phosphatase; time 60.0 mins,0.1280
same,Example 37 in ALP (Peak Area Ratio) mean,alkaline phosphatase; time 60.0 mins,0.1039
same,Example 37 in ALP (Peak Area Ratio) Normalized,alkaline phosphatase; time 75.0 mins,0.0974
same,Example 37 in ALP (Peak Area Ratio) mean,alkaline phosphatase; time 75.0 mins,0.0791
same,Example 37 in ALP (Peak Area Ratio) Normalized,alkaline phosphatase; time 90.0 mins,0.0752
same,Example 37 in ALP (Peak Area Ratio) mean,alkaline phosphatase; time 90.0 mins,0.0610
same,Example 37 in ALP (Peak Area Ratio) Normalized,alkaline phosphatase; time 105 mins,0.0630
same,Example 37 in ALP (Peak Area Ratio) mean,alkaline phosphatase; time 105 mins,0.0511
same,Example 37 in ALP (Peak Area Ratio) Normalized,alkaline phosphatase; time 120 mins,0.0478
same,Example 37 in ALP (Peak Area Ratio) mean,alkaline phosphatase; time 120 mins,0.0388
same,Example 37 in ALP (Peak Area Ratio) Normalized,alkaline phosphatase; time 135 mins,0.0439
same,Example 37 in ALP (Peak Area Ratio) mean,alkaline phosphatase; time 135 mins,0.0357
same,Example 37 in ALP (Peak Area Ratio) Normalized,alkaline phosphatase; time 150 mins,0.0322
same,Example 37 in ALP (Peak Area Ratio) mean,alkaline phosphatase; time 150 mins,0.0262
same,Example 37 in ALP (Peak Area Ratio) Normalized,alkaline phosphatase; time 165 mins,0.0296
same,Example 37 in ALP (Peak Area Ratio) mean,alkaline phosphatase; time 165 mins,0.0240
same,Example 37 in ALP (Peak Area Ratio) Normalized,alkaline phosphatase; time 180 mins,0.0275
same,Example 37 in ALP (Peak Area Ratio) mean,alkaline phosphatase; time 180 mins,0.0224
same,Example 37 in ALP (Peak Area Ratio) Normalized,alkaline phosphatase; time 210 mins,0.0227
same,Example 37 in ALP (Peak Area Ratio) mean,alkaline phosphatase; time 210 mins,0.0184
same,Example 37 in ALP (Peak Area Ratio) Normalized,alkaline phosphatase; time 240 mins,0.0198
same,Example 37 in ALP (Peak Area Ratio) mean,alkaline phosphatase; time 240 mins,0.0161
same,Example 37 in ALP (Peak Area Ratio) Normalized,alkaline phosphatase; time 270 mins,0.0161
same,Example 37 in ALP (Peak Area Ratio) mean,alkaline phosphatase; time 270 mins,0.0131
same,half-life,[1]; Table 2b,6.42 h
"CC(C)Cn1ncc2cc(Oc3ccc(F)cc3F)c(C(=O)NCC[N+](C)(C)Cc3cc(C(O)CNCCCCCCOCCCCc4ccccc4)ccc3OP(=O)(O)O)cc21 (stereo not shown) [Example 29, (2-{[5-(2,4-Difluoro-phenoxy)-1-isobutyl-1H-indazole-6-carbonyl]-amino}-ethyl)-(5-{-hydroxy-2-[6-(4-phenyl-butoxy)-hexylamino]-ethyl}-2-phosphonooxy-benzyl)-dimethyl-ammonium]",Calculated Compound Final Conc. (μM) at 270 mins.,alkaline phosphatase; added initial conc. 111.7 μM in reaction mixture,57.5 µM
same,half-life at 111.7 μM,"alkaline phosphatase; pH 7.4, ALP Enzyme Conc. 0.224 mg/mL, first order kinetics assumed",5.78 h
same,half-life at 111.7 μM,"alkaline phosphatase; pH 7.4, ALP Enzyme Conc. 0.443 mg/mL, first order kinetics assumed",2.36 h
same,Example 29 in ALP (Peak Area Ratio) Normalized,alkaline phosphatase; time 0 mins,1.0000
same,Example 29 in ALP (Peak Area Ratio) mean,alkaline phosphatase; time 0 mins,2.3900
same,Example 29 in ALP (Peak Area Ratio) Normalized,alkaline phosphatase; time 15.0 mins,0.9289
same,Example 29 in ALP (Peak Area Ratio) mean,alkaline phosphatase; time 15.0 mins,2.2200
same,Example 29 in ALP (Peak Area Ratio) Normalized,alkaline phosphatase; time 30.0 mins,0.9247
same,Example 29 in ALP (Peak Area Ratio) mean,alkaline phosphatase; time 30.0 mins,2.2100
same,Example 29 in ALP (Peak Area Ratio) Normalized,alkaline phosphatase; time 45.0 mins,0.8368
same,Example 29 in ALP (Peak Area Ratio) mean,alkaline phosphatase; time 45.0 mins,2.0000
same,Example 29 in ALP (Peak Area Ratio) Normalized,alkaline phosphatase; time 60.0 mins,0.7552
same,Example 29 in ALP (Peak Area Ratio) mean,alkaline phosphatase; time 60.0 mins,1.8050
same,Example 29 in ALP (Peak Area Ratio) Normalized,alkaline phosphatase; time 75.0 mins,0.7050
same,Example 29 in ALP (Peak Area Ratio) mean,alkaline phosphatase; time 75.0 mins,1.6850
same,Example 29 in ALP (Peak Area Ratio) Normalized,alkaline phosphatase; time 90.0 mins,0.6402
same,Example 29 in ALP (Peak Area Ratio) mean,alkaline phosphatase; time 90.0 mins,1.5300
same,Example 29 in ALP (Peak Area Ratio) Normalized,alkaline phosphatase; time 105 mins,0.6109
same,Example 29 in ALP (Peak Area Ratio) mean,alkaline phosphatase; time 105 mins,1.4600
same,Example 29 in ALP (Peak Area Ratio) Normalized,alkaline phosphatase; time 120 mins,0.6402
same,Example 29 in ALP (Peak Area Ratio) mean,alkaline phosphatase; time 120 mins,1.5300
same,Example 29 in ALP (Peak Area Ratio) Normalized,alkaline phosphatase; time 135 mins,0.6192
same,Example 29 in ALP (Peak Area Ratio) mean,alkaline phosphatase; time 135 mins,1.4800
same,Example 29 in ALP (Peak Area Ratio) Normalized,alkaline phosphatase; time 150 mins,0.5941
same,Example 29 in ALP (Peak Area Ratio) mean,alkaline phosphatase; time 150 mins,1.4200
same,Example 29 in ALP (Peak Area Ratio) Normalized,alkaline phosphatase; time 165 mins,0.5879
same,Example 29 in ALP (Peak Area Ratio) mean,alkaline phosphatase; time 165 mins,1.4050
same,Example 29 in ALP (Peak Area Ratio) Normalized,alkaline phosphatase; time 180 mins,0.5439
same,Example 29 in ALP (Peak Area Ratio) mean,alkaline phosphatase; time 180 mins,1.3000
same,Example 29 in ALP (Peak Area Ratio) Normalized,alkaline phosphatase; time 210 mins,0.5146
same,Example 29 in ALP (Peak Area Ratio) mean,alkaline phosphatase; time 210 mins,1.2300
same,Example 29 in ALP (Peak Area Ratio) Normalized,alkaline phosphatase; time 240 mins,0.4916
same,Example 29 in ALP (Peak Area Ratio) mean,alkaline phosphatase; time 240 mins,1.1750
same,Example 29 in ALP (Peak Area Ratio) Normalized,alkaline phosphatase; time 270 mins,0.5146
same,Example 29 in ALP (Peak Area Ratio) mean,alkaline phosphatase; time 270 mins,1.2300
same,half-life,[1]; Table 1b,57.8 h
